Reference: patent US10501421B1, “Substituted benzimidazoles as modulators of Ras signaling” (VANDERBILT UNIVERSITY, priority 2017, dated 2019)

Experiments:
[1] = system: H727 lung cancer cell lines (G12V K-Ras mutation); assay: Inhibition of cancer cell proliferation (CellTiter-Glo); type: cell-based; conditions: Homo sapiens, NCI-H727, 72 h; H727 cells, 3 days treatment, CellTiter-Glo; read-out: Cell proliferation activity (H727 cancer cell line proliferation IC50)
Procedure: Compounds of the present invention were measured for their ability to kill H727 lung cancer cell lines, which contain a G12V K-Ras mutation. Cell proliferation experiments were conducted in 96-well plates. Cells were plated at 1000 cells/well, incubated overnight, followed by treatment with a dose range of compound for 3 days at 37° C. Cell proliferation was assessed using a CellTiter-Glo assay (Promega) according to the manufacturer's protocol. Data were normalized to DMSO control. IC50 values were determined using a four-parameter dose-response (variable slope) equation. These assays are performed in a manner analogous to the assay disclosed in: Burns, M. C.; Sun, Q.; Daniels, R. N.; Camper, D. V.; Kennedy, J. P.; Phan, J.; Olejniczak, E. O.; Lee, T.; Waterson, A. G.; Rossanese, O. W.; Fesik, S. W. “Approach for targeting Ras with small molecules that activate SOS-mediated nucleotide exchange” Proc. Natl. Acad. Sci. 2014; 11(9): 3401-3406. PMCID: PMC3948241.

[2] = target: T1, Son of Sevenless (SOS) (Homo sapiens, UniProt Q07889); assay: Binding to SOS, fluorescence polarization anisotropy (FPA) probe displacement; conditions: displacement of FITC-conjugated probe (Example 285), affinity calculated from IC50
T1 sequence (Q07889 564-1049 limits assumed): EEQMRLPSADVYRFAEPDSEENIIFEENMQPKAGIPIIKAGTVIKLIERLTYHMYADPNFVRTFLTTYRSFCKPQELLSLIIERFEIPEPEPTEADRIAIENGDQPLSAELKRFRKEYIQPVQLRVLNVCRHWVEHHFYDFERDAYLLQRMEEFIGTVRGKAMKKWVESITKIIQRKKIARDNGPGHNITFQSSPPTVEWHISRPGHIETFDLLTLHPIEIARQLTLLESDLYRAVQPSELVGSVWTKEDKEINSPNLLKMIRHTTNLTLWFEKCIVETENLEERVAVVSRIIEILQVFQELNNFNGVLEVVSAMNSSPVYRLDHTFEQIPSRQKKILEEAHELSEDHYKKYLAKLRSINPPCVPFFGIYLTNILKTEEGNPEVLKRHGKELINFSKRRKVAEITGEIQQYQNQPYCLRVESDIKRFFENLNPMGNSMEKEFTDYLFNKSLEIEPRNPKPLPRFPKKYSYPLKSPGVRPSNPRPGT
In short: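 Test compounds were titrated against SOS pre-bound to a fluorescein-labelled probe, with anisotropy plotted versus compound concentration. Binding affinities were derived from IC50 values obtained by four-parameter dose-response fitting.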

[3] = target: Ras GEF SOS (Son of Sevenless) (Homo sapiens, UniProt Q07889); assay: SOS-mediated nucleotide exchange on Ras (BODIPY-GDP fluorescence); type: biochemical; conditions: SOS-mediated exchange of BODIPY-GDP for GTP on Ras
In short: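 Exchange rates were taken from single-exponential fits of the fluorescence time course as BODIPY-GDP on Ras was replaced by GTP. Compound went in first, then GTP and SOS. Mean rates plotted against concentration gave EC50 by four-parameter dose-response fitting.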

Sequence of Ras GEF SOS (Son of Sevenless) (P01112 1-166 partner limits assumed, one chain of several): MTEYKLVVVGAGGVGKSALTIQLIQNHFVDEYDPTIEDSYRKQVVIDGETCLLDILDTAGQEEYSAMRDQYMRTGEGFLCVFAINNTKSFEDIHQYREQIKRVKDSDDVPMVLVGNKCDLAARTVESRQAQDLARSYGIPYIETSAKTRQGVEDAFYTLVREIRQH

Structure (SMILES) | IC50 [1] [nM] | Ki [2] [nM] | EC50 [3] [nM]
Cc1cc(Cn2c(NCC3CNC3)nc3c(N4CCN(C)CC4)cc(Cl)cc32)cc(C)c1F [Example 301, N-(azetidin-3-ylmethyl)-6-chloro-1-(4-fluoro-3,5-dimethylbenzyl)-4-(4-methylpiperazin-1-yl)-1H-benzo[d]imidazol-2-amine] |  | < 500 | 1000 to 5000
Cc1cc(Cn2c(NCCN)nc3c(C4=CCNCC4)cc(Cl)cc32)cc(C)c1F [Example 303, N^1-(6-chloro-1-(4-fluoro-3,5-dimethylbenzyl)-4-(1,2,3,6-tetrahydropyridin-4-yl)-1H-benzo[d]imidazol-2-yl)ethane-1,2-diamine] |  | < 500 | < 1000
Cc1cc(Cn2c(N3CCNCC3)nc3c(-c4ccccc4Cl)cc(Cl)cc32)cc(C)c1F [Example 307, 6-chloro-4-(2-chlorophenyl)-1-(4-fluoro-3,5-dimethylbenzyl)-2-(piperazin-1-yl)-1H-benzo[d]imidazole] |  | < 500 | 1000 to 5000
Cc1cc(Cn2c(N3CCNCC3)nc3c(CC(=O)O)cc(Cl)cc32)cc(C)c1F [Example 310, 2-(6-chloro-1-(4-fluoro-3,5-dimethylbenzyl)-2-(piperazin-1-yl)-1H-benzo[d]imidazol-4-yl)acetic acid] |  | 500 to 1000 | < 1000
O=C(O)Cc1cc(Cl)cc2c1nc(N1CCNCC1)n2Cc1ccc(F)c(Cl)c1 [Example 311, 2-(6-chloro-1-(3-chloro-4-fluorobenzyl)-2-(piperazin-1-yl)-1H-benzo[d]imidazol-4-yl)acetic acid] |  | 1000 to 5000 | < 1000
Cc1cc(Br)c2nc(NCCN)n(Cc3cc(C)c(F)c(C)c3)c2c1 [Example 313, N^1-(4-bromo-1-(4-fluoro-3,5-dimethylbenzyl)-6-methyl-1H-benzo[d]imidazol-2-yl)ethane-1,2-diamine] |  | 1000 to 5000 | 1000 to 5000
Cc1cc(OC2CCNCC2)c2nc(N3CCNCC3)n(Cc3cc(C)c(F)c(C)c3)c2c1 [Example 315, 1-(4-fluoro-3,5-dimethylbenzyl)-6-methyl-2-(piperazin-1-yl)-4-(piperidin-4-yloxy)-1H-benzo[d]imidazole] |  | 1000 to 5000 | < 1000
Cc1cc(OCCN2CCCC2)c2nc(N3CCNCC3)n(Cc3cc(C)c(F)c(C)c3)c2c1 [Example 316, 1-(4-fluoro-3,5-dimethylbenzyl)-6-methyl-2-(piperazin-1-yl)-4-(2-(pyrrolidin-1-yl)ethoxy)-1H-benzo[d]imidazole] |  | 1000 to 5000 | < 1000
Cc1cc(OCCN)c2nc(NCCN)n(Cc3cc(C)c(F)c(C)c3)c2c1 [Example 320, N^1-(4-(2-aminoethoxy)-1-(4-fluoro-3,5-dimethylbenzyl)-6-methyl-1H-benzo[d]imidazol-2-yl)ethane-1,2-diamine] |  | 500 to 1000 | < 1000
Cc1cc(N2CCN(C)CC2)c2nc(N3CCNCC3)n(Cc3cc(C)c(F)c(C)c3)c2c1 [Example 322, 1-(4-fluoro-3,5-dimethylbenzyl)-6-methyl-4-(4-methylpiperazin-1-yl)-2-(piperazin-1-yl)-1H-benzo[d]imidazole] |  | < 500 | < 1000
Cc1ccc2nc(N3CCNCC3)n(Cc3cc(C)c(F)c(C)c3)c2c1 [Example 323, 1-(4-fluoro-3,5-dimethylbenzyl)-6-methyl-2-(piperazin-1-yl)-1H-benzo[d]imidazole] |  | 1000 to 5000 | < 1000
Cc1cc(OC2CCNC2)c2nc(N3CCNCC3)n(Cc3cc(C)c(F)c(C)c3)c2c1 (stereo not drawn) [Example 327, 1-(4-fluoro-3,5-dimethylbenzyl)-6-methyl-2-(piperazin-1-yl)-4-(pyrrolidin-3-yloxy)-1H-benzo[d]imidazole] |  | 500 to 1000 | < 1000
Cc1cc2nc(N3CCNC(=O)C3)n(Cc3cc(C)c(F)c(C)c3)c2cc1C [Example 332, 4-(1-(4-fluoro-3,5-dimethylbenzyl)-5,6-dimethyl-1H-benzo[d]imidazol-2-yl)piperazin-2-one] |  | > 5000 | 5000 to 30000

Results, then the compound that gave them:

IC50 [1] [nM] | Ki [2] [nM] | EC50 [3] [nM] | Structure (SMILES)
1000 to 5000 |  |  | Cc1cc(-c2c(C)c(C)cc3c2nc(N2CCNCC2)n3Cc2ccc(F)c(Cl)c2)n(C)n1 [Example 286, 1-(3-chloro-4-fluorobenzyl)-4-(1,3-dimethyl-1H-pyrazol-5-yl)-5,6-dimethyl-2-(piperazin-1-yl)-1H-benzo[d]imidazole]
 | < 500 | < 1000 | Cc1cc(Cn2c(NCCN)nc3c(N4CCN(C)CC4)cc(Cl)cc32)cc(C)c1F [Example 300, N^1-(6-chloro-1-(4-fluoro-3,5-dimethylbenzyl)-4-(4-methylpiperazin-1-yl)-1H-benzo[d]imidazol-2-yl)ethane-1,2-diamine]
 | 500 to 1000 | < 1000 | Cc1cc(Cn2c(NCC3CNC3)nc3c(C4=CCNCC4)cc(Cl)cc32)cc(C)c1F [Example 302, N-(azetidin-3-ylmethyl)-6-chloro-1-(4-fluoro-3,5-dimethylbenzyl)-4-(1,2,3,6-tetrahydropyridin-4-yl)-1H-benzo[d]imidazol-2-amine]
 | < 500 | < 1000 | Cc1cc(Cn2c(N3CCNCC3)nc3c(C4=CCNCC4)cc(Cl)cc32)cc(C)c1F [Example 304, 6-chloro-1-(4-fluoro-3,5-dimethylbenzyl)-2-(piperazin-1-yl)-4-(1,2,3,6-tetrahydropyridin-4-yl)-1H-benzo[d]imidazole]
 | < 500 | < 1000 | Cc1cc(Cn2c(NCC3CNC3)nc3c(-c4ccccc4Cl)cc(Cl)cc32)cc(C)c1F [Example 305, N-(azetidin-3-ylmethyl)-6-chloro-4-(2-chlorophenyl)-1-(4-fluoro-3,5-dimethylbenzyl)-1H-benzo[d]imidazol-2-amine]
 | < 500 | 1000 to 5000 | Cc1cc(Cn2c(NCCN)nc3c(-c4ccccc4Cl)cc(Cl)cc32)cc(C)c1F [Example 306, N^1-(6-chloro-4-(2-chlorophenyl)-1-(4-fluoro-3,5-dimethylbenzyl)-1H-benzo[d]imidazol-2-yl)ethane-1,2-diamine]
 | < 500 | 1000 to 5000 | Cc1cc(Cn2c(NCCN)nc3c(-c4ccccc4OC(C)C)cc(Cl)cc32)cc(C)c1F [Example 308, N^1-(6-chloro-1-(4-fluoro-3,5-dimethylbenzyl)-4-(2-isopropoxyphenyl)-1H-benzo[d]imidazol-2-yl)ethane-1,2-diamine]
 | < 500 | 1000 to 5000 | Cc1cc(Cn2c(NCC3CNC3)nc3c(N4CCNCC4)cc(Cl)cc32)cc(C)c1F [Example 309, N-(azetidin-3-ylmethyl)-6-chloro-1-(4-fluoro-3,5-dimethylbenzyl)-4-(piperazin-1-yl)-1H-benzo[d]imidazol-2-amine]
 | < 500 | < 1000 | Cc1cc(Cn2c(N3CCNCC3)nc3c(N4CCOCC4)cc(Cl)cc32)cc(C)c1F [Example 312, 4-(6-chloro-1-(4-fluoro-3,5-dimethylbenzyl)-2-(piperazin-1-yl)-1H-benzo[d]imidazol-4-yl)morpholine]
 | < 500 | < 1000 | Cc1cc(-c2ccc(CN)cc2)c2nc(N3CCNCC3)n(Cc3cc(C)c(F)c(C)c3)c2c1 [Example 318, (4-(1-(4-fluoro-3,5-dimethylbenzyl)-6-methyl-2-(piperazin-1-yl)-1H-benzo[d]imidazol-4-yl)phenyl)methanamine]
 | < 500 | < 1000 | Cc1cc(Cn2c(N3CCNCC3)nc3c(N4CCC(N)CC4)cc(Cl)cc32)cc(C)c1F [Example 319, 1-(6-chloro-1-(4-fluoro-3,5-dimethylbenzyl)-2-(piperazin-1-yl)-1H-benzo[d]imidazol-4-yl)piperidin-4-amine]
 | 500 to 1000 | < 1000 | Cc1cc(OCC2CCNCC2)c2nc(NCCN)n(Cc3cc(C)c(F)c(C)c3)c2c1 [Example 330, N^1-(1-(4-fluoro-3,5-dimethylbenzyl)-6-methyl-4-(piperidin-4-ylmethoxy)-1H-benzo[d]imidazol-2-yl)ethane-1,2-diamine]
 | 500 to 1000 | < 1000 | Cc1cc(OCCN2CCN(C)CC2)c2nc(NCCN)n(Cc3cc(C)c(F)c(C)c3)c2c1 [Example 331, N^1-(1-(4-fluoro-3,5-dimethylbenzyl)-6-methyl-4-(2-(4-methylpiperazin-1-yl)ethoxy)-1H-benzo[d]imidazol-2-yl)ethane-1,2-diamine]
